In patent US20150133426A1, “SUBSTITUTED PYRROLOPYRIMIDINES” (BAYER PHARMA AKTIENGESELLSCHAFT, priority 2012, published 2015):

The compounds below were run against T1, human full-length MKNK1 (Homo sapiens, UniProt Q9BUB5, T385D) (assay: MKNK1 kinase high ATP assay (TR-FRET)). Conditions: high ATP (2 mM), 15 min preincubation with enzyme, GST-MKNK1 (T344D).
T1 construct: purchased Carna Biosciences 02-145; host or cells: insect cells, baculovirus expression system
T1 sequence (Q9BUB5 1-424 isoform Q9BUB5-2 T344D): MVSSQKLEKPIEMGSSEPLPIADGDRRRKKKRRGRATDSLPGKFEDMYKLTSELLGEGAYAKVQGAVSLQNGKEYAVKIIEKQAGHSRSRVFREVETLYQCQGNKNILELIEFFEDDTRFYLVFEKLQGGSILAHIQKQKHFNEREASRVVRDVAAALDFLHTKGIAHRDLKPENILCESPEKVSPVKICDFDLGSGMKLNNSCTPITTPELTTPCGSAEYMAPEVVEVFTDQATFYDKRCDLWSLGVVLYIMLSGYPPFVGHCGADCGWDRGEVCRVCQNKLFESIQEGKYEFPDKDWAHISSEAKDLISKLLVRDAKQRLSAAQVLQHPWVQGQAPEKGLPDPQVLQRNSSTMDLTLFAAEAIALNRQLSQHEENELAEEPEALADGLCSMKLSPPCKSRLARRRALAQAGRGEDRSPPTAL
Format: biochemical
Procedure, shortened: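 GST-tagged full-length human MKNK1 (aa 1-424, T344D), baculovirus-expressed, preincubated 15 min with compound, then reacted 30 min at 22 °C with 2 mM ATP and 0.06 µM biotinylated peptide (final).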
Compound CNC(=O)C1CCc2[nH]c3ncnc(Nc4ccccc4OC4CCCC4)c3c2C1 (racemic) [Example 189, (RS)-4-{[2-(Cyclopentyloxy)phenyl]amino}-N-methyl-6,7,8,9-tetrahydro-5H-pyrimido[4,5-b]indole-6-carboxamide] has an IC50 of 84 nM. Compound CC(C)Oc1cc(F)ccc1Nc1ncnc2[nH]c3c(c12)CSCC3 [Example 11, N-(4-Fluoro-2-isopropoxyphenyl)-5,7,8,9-tetrahydrothiopyrano[3′,4′:4,5]pyrrolo[2,3-d]pyrimidin-4-amine] has an IC50 of 42 nM. For CN(C)C(=O)C1CCc2[nH]c3ncnc(Nc4ccccc4OC4CCCC4)c3c2C1 (racemic) [Example 188, (RS)-4-{[2-(Cyclopentyloxy)phenyl]amino}-N,N-dimethyl-6,7,8,9-tetrahydro-5H-pyrimido[4,5-b]indole-6-carboxamide], the IC50 was 710 nM. CS(=O)(=O)CCCNC(=O)C1CCc2[nH]c3ncnc(Nc4ccccc4OC(F)F)c3c2C1 (racemic) [Example 154, (RS)-4-{[2-(Difluoromethoxy)phenyl]amino}-N-[3-(methylsulfonyl)propyl]-6,7,8,9-tetrahydro-5H-pyrimido[4,5-b]indole-6-carboxamide] gave an IC50 of 469 nM. With CCNC(=O)C1CCc2[nH]c3ncnc(Nc4cc5cn[nH]c5cc4OC)c3c2C1 (racemic) [Example 218, (RS)—N-Ethyl-4-[(6-methoxy-1H-indazol-5-yl)amino]-6,7,8,9-tetrahydro-5H-pyrimido[4,5-b]indole-6-carboxamide] the IC50 was 6 nM. CS(=O)(=O)CCCNC(=O)C1CCc2[nH]c3ncnc(Nc4cccc5c4OC(F)(F)O5)c3c2C1 (racemic) [Example 60, (RS)-4-[(2,2-Difluoro-1,3-benzodioxol-4-yl)amino]-N-[3-(methylsulfonyl)propyl]-6,7,8,9-tetrahydro-5H-pyrimido[4,5-b]indole-6-carboxamide] was tested, and the IC50 was 1360 nM. COc1cc(F)ccc1Sc1ncnc2[nH]c3c(c12)CC(C(=O)NCCCS(C)(=O)=O)CC3 (racemic) [Example 147, (RS)-4-[(4-Fluoro-2-methoxyphenyl)sulfanyl]-N-[3-(methylsulfonyl)propyl]-6,7,8,9-tetrahydro-5H-pyrimido[4,5-b]indole-6-carboxamide] gave an IC50 of 5920 nM. Work on Cc1ccc(Nc2ncnc3[nH]c4c(c23)CC(C(=O)NCCCS(C)(=O)=O)CC4)cc1S(=O)(=O)O (racemic) [Example 59, (RS)-2-Methyl-5-[(6-{[3-(methylsulfonyl)propyl]carbamoyl}-6,7,8,9-tetrahydro-5H-pyrimido[4,5-b]indol-4-yl)amino]benzenesulfonic acid] yielded an IC50 of 124 nM. Compound COc1cc(Cl)c(Cl)cc1Nc1ncnc2[nH]c3c(c12)CC(C(=O)NC1CC1)CC3 (racemic) [Example 20, (RS)—N-Cyclopropyl-4-[(4,5-dichloro-2-methoxyphenyl)amino]-6,7,8,9-tetrahydro-5H-pyrimido[4,5-b]indole-6-carboxamide] has an IC50 of 6 nM. Nc1ccc2c(c1)N(c1ncnc3[nH]c4c(c13)CCCC4)CC2 [Example 111] gave an IC50 of 1100 nM. Compound CN1CCN(C(=O)C2CCc3[nH]c4ncnc(Nc5ccccc5OC5CCCC5)c4c3C2)CC1 (racemic) [Example 192, (RS)-(4-{[2-(Cyclopentyloxy)phenyl]amino}-6,7,8,9-tetrahydro-5H-pyrimido[4,5-b]indol-6-yl)(4-methylpiperazin-1-yl)methanone] has an IC50 of 181 nM. With COc1cc(N2CCOCC2)ccc1Nc1ncnc2[nH]c3c(c12)CC(C(=O)NCCCS(C)(=O)=O)CC3 (racemic) [Example 71, (RS)-4-{[2-Methoxy-4-(morpholin-4-yl)phenyl]amino}-N-[3-(methylsulfonyl)propyl]-6,7,8,9-tetrahydro-5H-pyrimido[4,5-b]indole-6-carboxamide] the IC50 was 10800 nM. In the case of CS(=O)(=O)CCCNC(=O)C1CCc2[nH]c3ncnc(Nc4ccc5c(c4)CCS5(=O)=O)c3c2C1 (racemic) [Example 52, (RS)-4-[(1,1-Dioxido-2,3-dihydro-1-benzothiophen-5-yl)amino]-N-[3-(methylsulfonyl)propyl]-6,7,8,9-tetrahydro-5H-pyrimido[4,5-b]indole-6-carboxamide], the IC50 is reported as 904 nM. In the case of CS(=O)(=O)CCCNC(=O)C1CCc2[nH]c3ncnc(Nc4ccc(OC(F)F)cc4)c3c2C1 (racemic) [Example 31, (RS)-4-{[4-(Difluoromethoxy)phenyl]amino}-N-[3-(methylsulfonyl)propyl]-6,7,8,9-tetrahydro-5H-pyrimido[4,5-b]indole-6-carboxamide], the IC50 is reported as 2750 nM. Compound c1nc(Nc2ccc3[nH]ncc3c2)c2c3c([nH]c2n1)CCC1(C3)OCCO1 [Example 27, N-(1H-Indazol-5-yl)-5′,7′,8′,9′-tetrahydrospiro[1,3-dioxolane-2,6′-pyrimido[4,5-b]indol]-4′-amine] has an IC50 of 51 nM. Compound COc1ccc(Br)cc1Nc1ncnc2[nH]c3c(c12)CCCC3 [Example 128] has an IC50 of 313 nM. Work on COc1cc2[nH]ncc2cc1Nc1ncnc2[nH]c3c(c12)CCCC3 [Example 112] yielded an IC50 of 6 nM. With COCC1(OC)CCc2[nH]c3ncnc(Nc4cc(Cl)c(Cl)cc4OC)c3c2C1 (racemic) [Example 140] the IC50 was 339 nM. COc1ccc(C(F)(F)F)cc1Nc1ncnc2[nH]c3c(c12)CC(C(=O)Nc1ccccc1)CC3 (racemic) [Example 214, (RS)-4-{[2-Methoxy-5-(trifluoromethyl)phenyl]amino}-N-phenyl-6,7,8,9-tetrahydro-5H-pyrimido[4,5-b]indole-6-carboxamide] gave an IC50 of 3400 nM. Work on c1nc(Nc2ccc3[nH]ncc3c2)c2c3c([nH]c2n1)CCCCC3 [Example 3, N-(1H-Indazol-5-yl)-5,6,7,8,9,10-hexahydrocyclohepta[4,5]pyrrolo[2,3-d]pyrimidin-4-amine] yielded an IC50 of 45 nM. With COc1ccc(C(F)(F)F)cc1Nc1ncnc2[nH]c3c(c12)CC(C(=O)O)CC3 (racemic) [Example 103, (RS)-4-{[2-Methoxy-5-(trifluoromethyl)phenyl]amino}-6,7,8,9-tetrahydro-5H-pyrimido[4,5-b]indole-6-carboxylic acid] the IC50 was 400 nM. Cc1nc2c(Nc3ncnc4[nH]c5c(c34)CC(C(=O)NCCCS(C)(=O)=O)CC5)cccc2[nH]1 (racemic) [Example 169, (RS)-4-[(2-Methyl-1H-benzimidazol-4-yl)amino]-N-[3-(methylsulfonyl)propyl]-6,7,8,9-tetrahydro-5H-pyrimido[4,5-b]indole-6-carboxamide] gave an IC50 of 2700 nM. Work on COc1ccc(F)cc1Nc1ncnc2[nH]c3c(c12)CC(C(=O)NCCC(F)(F)F)CC3 (racemic) [Example 198, (RS)-4-[(5-Fluoro-2-methoxyphenyl)amino]-N-(3,3,3-trifluoropropyl)-6,7,8,9-tetrahydro-5H-pyrimido[4,5-b]indole-6-carboxamide] yielded an IC50 of 249 nM. With CCOC(=O)C1CCc2[nH]c3ncnc(Nc4ccccc4N4CCOCC4)c3c2C1 (racemic) [Example 172, (RS)-Ethyl 4-{[2-(morpholin-4-yl)phenyl]amino}-6,7,8,9-tetrahydro-5H-pyrimido[4,5-b]indole-6-carboxylate] the IC50 was 751 nM. Compound COc1cc2[nH]c(=O)[nH]c2cc1Nc1ncnc2[nH]c3c(c12)CC(C(=O)NCCCS(C)(=O)=O)CC3 (racemic) [Example 164, (RS)-4-[(6-Methoxy-2-oxo-2,3-dihydro-1H-benzimidazol-5-yl)amino]-N-[3-(methylsulfonyl)propyl]-6,7,8,9-tetrahydro-5H-pyrimido[4,5-b]indole-6-carboxamide] has an IC50 of 225 nM. For O=c1[nH]c2ccc(Nc3ncnc4[nH]c5c(c34)CCCC5)cc2s1 [Example 117], the IC50 was 58 nM. CCOC(=O)C1CCc2[nH]c3ncnc(Nc4cc5cn[nH]c5cc4OC)c3c2C1 (racemic) [Example 179, (RS)-Ethyl 4-[(6-methoxy-1H-indazol-5-yl)amino]-6,7,8,9-tetrahydro-5H-pyrimido[4,5-b]indole-6-carboxylate] showed an IC50 of 13 nM. With O=C(O)C1CCc2[nH]c3ncnc(Nc4ccc5[nH]ncc5c4)c3c2C1 (racemic) [Example 6, (RS)-4-(1H-Indazol-5-ylamino)-6,7,8,9-tetrahydro-5H-pyrimido[4,5-b]indole-6-carboxylic acid] the IC50 was 89 nM. Work on CCOC(=O)CNC(=O)C1CCc2[nH]c3ncnc(Nc4ccc(F)cc4OCCO)c3c2C1 (racemic) [Example 228, (RS)-Ethyl N-[(4-{[4-fluoro-2-(2-hydroxyethoxy)phenyl]amino}-6,7,8,9-tetrahydro-5H-pyrimido[4,5-b]indol-6-yl)carbonyl]glycinate] yielded an IC50 of 51 nM. With CS(=O)(=O)CCCNC(=O)C1CCc2[nH]c3ncnc(Nc4ccc(Cl)c(Cl)c4)c3c2C1 (racemic) [Example 166, (RS)-4-[(3,4-Dichlorophenyl)amino]-N-[3-(methylsulfonyl)propyl]-6,7,8,9-tetrahydro-5H-pyrimido[4,5-b]indole-6-carboxamide] the IC50 was 45 nM. Compound CCNC(=O)C1CCc2[nH]c3ncnc(Nc4cc(F)ccc4OC)c3c2C1 (racemic) [Example 194, (RS)—N-Ethyl-4-[(5-fluoro-2-methoxyphenyl)amino]-6,7,8,9-tetrahydro-5H-pyrimido[4,5-b]indole-6-carboxamide] has an IC50 of 159 nM. COc1cc2[nH]ncc2cc1Nc1ncnc2[nH]c3c(c12)CC(F)(F)CC3 [Example 141] showed an IC50 of 6 nM. CS(=O)(=O)CCCNC(=O)C1CCc2[nH]c3ncnc(Oc4ccc5[nH]ncc5c4)c3c2C1 (racemic) [Example 56, (RS)-4-(1H-Indazol-5-yloxy)-N-[3-(methylsulfonyl)propyl]-6,7,8,9-tetrahydro-5H-pyrimido[4,5-b]indole-6-carboxamide] gave an IC50 of 226 nM. In the case of CS(=O)(=O)CCCNC(=O)C1CCc2[nH]c3ncnc(Nc4ccccc4OC4CCOCC4)c3c2C1 (racemic) [Example 79, (RS)—N-[3-(Methylsulfonyl)propyl]-4-{[2-(tetrahydro-2H-pyran-4-yloxy)phenyl]amino}-6,7,8,9-tetrahydro-5H-pyrimido[4,5-b]indole-6-carboxamide], the IC50 is reported as 58 nM.
